According to US20140212407A1, “TREATMENT OF OBESITY” (Isis Innovation Limited, priority 2008, published 2014):

How the values were obtained:
[1] = Badiou et al. 2005; cited from earlier work
[2] = Body weight and food intake in rats on MR diet with or without L-cysteine, 3 weeks; format: in vivo, rat; conditions: L-cysteine 5 g/kg added to MR diet, preliminary
From the text: To distinguish the effect of cysteine on body weight from that of methionine, the same experiment described above was repeated with addition of a third group. In addition to the methionine restricted (MR) and control groups, a third group was included comprising rats fed an MR diet supplemented with L-cysteine at a concentration of 5 g/kg diet. Age of the rats at the start of experiment, housing conditions and MR and control diets were similar to those in the above experiment. Food and water were provided ad libitum. Each group consisted of 8 rats; there was no significant difference in body weight between the 3 groups at baseline.

gene for CGL = conditions: by inhibition of the ERK/Sp1 signalling pathway; Fiorucci et al 2005; cited from earlier work
[3] = humans, concentration-dependent; Smith et al 2003; cited from earlier work
[4] = molecular target: cystathionine γ-lyase (CGL) (Homo sapiens, UniProt P32929); conditions: Steegborn et al J Biol Chem 1999; cited from earlier work
cystathionine γ-lyase (CGL), sequence (P32929 whole entry): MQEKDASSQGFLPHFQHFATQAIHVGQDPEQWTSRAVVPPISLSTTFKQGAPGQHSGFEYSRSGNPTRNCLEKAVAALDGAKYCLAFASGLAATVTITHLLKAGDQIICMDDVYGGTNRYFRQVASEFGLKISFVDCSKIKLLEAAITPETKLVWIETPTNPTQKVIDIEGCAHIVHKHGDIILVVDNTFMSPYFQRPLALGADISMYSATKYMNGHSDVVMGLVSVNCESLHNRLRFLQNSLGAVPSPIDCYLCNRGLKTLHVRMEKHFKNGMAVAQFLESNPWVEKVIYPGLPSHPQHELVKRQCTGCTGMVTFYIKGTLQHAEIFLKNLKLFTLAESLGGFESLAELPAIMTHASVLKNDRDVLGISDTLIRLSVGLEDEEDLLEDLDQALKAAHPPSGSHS

SMILES: CC1(C)C[C@@H]1C(=O)N/C(=C\CCCCSC[C@H](N)C(=O)O)C(=O)O [Cilastatin, cilastatin]
- plasma cysteine levels [1]: lowers plasma cysteine levels

SMILES: N[C@@H](CS)C(=O)O [L-cysteine]
- effect on weight gain of MR rats [2]: prevented the decrease in weight gain

SMILES: CC(=O)Oc1ccccc1C(=O)O [aspirin]
- expression of the gene for CGL (gene for CGL): reduce expression

SMILES: COc1ccc2c(c1)c(CC(=O)O)c(C)n2C(=O)c1ccc(Cl)cc1 [indomethacin]
- expression of the gene for CGL (gene for CGL): reduce expression

SMILES: CC(C(=O)O)c1cccc(C(=O)c2ccccc2)c1 (stereo not shown) [ketoprofen]
- expression of the gene for CGL (gene for CGL): reduce expression

SMILES: O=S(=O)(O)CCS [mesna]
- plasma level of cysteine [3]: markedly reduces

SMILES: C#CCC(N)C(=O)O (stereo not shown) [propargylglycine]
- inhibition of CGL enzyme activity [4]: potent inhibitors
